Test results as given in patent US20230159445A1, “STAT INHIBITORY COMPOUNDS AND COMPOSITIONS” (JANPIX LIMITED, priority 2020, published 2023).

Assays:
glutathione (GSH) = assay: Reactivity Profiling with Glutathione (GSH), half-life by HPLC; details: 5 mM glutathione (GSH) in IMDM with 10% FBS
[1] = system: normal human fibroblast (NHF) cells; assay: NHF Cell Cytotoxicity Assay (CellTiter-Blue, 72 h), off-target effects; assay type: cell-based; details: Homo sapiens, Fibroblast; pooled NHF cells
Experimental: In some embodiments, the off-target effects of the compounds are evaluated in healthy human cells, such as in a normal human fibroblast (NHF) cell cytotoxicity assay.
Cell viability was examined following treatment at various concentrations of inhibitor (0.097656-50 μM) using a cell Titer-Blue cell viability assay. 1×10^4 normal human fibroblast cells per well were plated in 96-well assay plates in culture medium. All cells are grown in DMEM, IMDM and RPMI-1640 were supplemented with 10% FBS. After 24 hours, test compounds and vehicle controls are added to appropriate wells so the final volume was 100 μl in each well. The cells are cultured for the desired test exposure period (72 hours) at 37° C. and 5% CO2. The assay plates are removed from 37° C. incubator and 20 μL/well of CellTiter-Blue® Reagent is added. The plates are incubated using standard cell culture conditions for 1-4 hours and the plates are shaken for 10 seconds and record fluorescence at 560/590nm. For each sample well, value is normalized between the DMSO control and the highest concentration in case of plateau, and converted into a percentage. In the absence of plateau, minimum lecture is obtained from a different sample within the same experiment. For each concentration, the four replicates are averaged and standard deviation calculated. Data is fitted to a log(inhibitor) vs response curve with variable slope model using Microsoft Excel, obtaining IC50 and Hill slope variables.
A person skilled in the art would appreciate that a higher IC50 value in this NHF assay can indicate lower off-target effects.

MV4-11 cells = assay: MV4-11 Cell Cytotoxicity Assay (CellTiter-Blue, 72 h); assay type: cell-based, human; details: Homo sapiens, MV4-11; MV-4-11 cells
Outline: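 Viability read-out: CellTiter-Blue, 1 h, fluorescence 560/590 nm. Preceded by 72 h exposure (37° C, 5% CO2) to twofold dilution series from 50 μM, triplicate, 0.5% DMSO vehicle, applied 24 h after plating.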

half-life at 25 μM (glutathione (GSH)) | Structure (SMILES) | IC50 [1] | IC50 (MV4-11 cells)
247 to 554 min | COc1cc(C(=O)O)ccc1N(Cc1cc(C2CC2)cc(C(C)(C)C)c1)C(=O)CN(Cc1ccc(Cl)cc1)S(=O)(=O)c1c(F)c(F)c(F)c(F)c1F [Compound 1016, 4-(N-(3-(tert-butyl)-5-cyclopropylbenzyl)-2-(N-(4-chlorobenzyl)-(2,3,4,5,6-pentafluorophenyl)sulfon-amido)acetamido)-3-methoxybenzoic acid] | 20 to 30 µM | 316 to 1000 nM
554 to 100000 min | CN(C)c1cc(C(=O)O)ccc1N(Cc1cc(C2CC2)cc(C(C)(C)C)c1)C(=O)CN(Cc1ccc(Cl)cc1)S(=O)(=O)c1c(F)c(F)c(F)c(F)c1F [Compound 1041, 4-(N-(3-(tert-butyl)-5-cyclopropylbenzyl)-2-(N-(4-chlorobenzyl)-(2,3,4,5,6-pentafluorophenyl)sulfon-amido)acetamido)-3-(dimethylamino)benzoic acid] | 20 to 30 µM | 316 to 1000 nM
142 to 247 min | COc1cc(C(=O)O)ccc1N(Cc1cc(C2CC2)cc(C(C)(C)C)c1)C(=O)CN(Cc1ccccc1F)S(=O)(=O)c1c(F)c(F)c(F)c(F)c1F [Compound 1061, 4-(N-(3-(tert-butyl)-5-cyclopropylbenzyl)-2-(N-(2-fluorobenzyl)-(2,3,4,5,6-pentafluoro-phenyl)sulfonamido)acetamido)-3-methoxybenzoic acid] | 10 to 20 µM | 0.01 to 316 nM
554 to 100000 min | CC(C)(C)c1cc(CN(C(=O)CN(Cc2ccccc2F)S(=O)(=O)c2c(F)c(F)c(F)c(F)c2F)c2ccc(C(=O)O)cc2OC2CC2)cc(C2CC2)c1 [Compound 1062, 4-(N-(3-(tert-butyl)-5-cyclopropylbenzyl)-2-(N-(2-fluorobenzyl)-(2,3,4,5,6-pentafluoro-phenyl)sulfonamido)acetamido)-3-cyclopropoxybenzoic acid] | 10 to 20 µM | 0.01 to 316 nM
247 to 554 min | COc1cc(C(=O)O)ccc1N(Cc1cc(C2CC2)cc(C(C)(C)C)c1)C(=O)CN(Cc1c(F)c(F)c(F)c(F)c1F)S(=O)(=O)c1c(F)c(F)c(F)c(F)c1F [Compound 1066, 4-(N-(3-(tert-butyl)-5-cyclopropylbenzyl)-2-(N-((perfluorophenyl)methyl)-(2,3,4,5,6-pentafluoro-phenyl)sulfonamido)acetamido)-3-methoxybenzoic acid] | 0.001 to 10 µM | 0.01 to 316 nM
0.1 to 142 min | COc1cc(C(=O)O)ccc1N(Cc1cc(C2CC2)cc(C(C)(C)C)c1)C(=O)CN(Cc1ccccc1C#N)S(=O)(=O)c1c(F)c(F)c(F)c(F)c1F [Compound 1075, 4-(N-(3-(tert-butyl)-5-cyclopropylbenzyl)-2-(N-(2-cyanobenzyl)-(2,3,4,5,6-pentafluorophenyl)sulfon-amido)acetamido)-3-methoxybenzoic acid] | 10 to 20 µM | 0.01 to 316 nM
0.1 to 142 min | COc1cc(C(=O)O)ccc1N(Cc1cc(C2CC2)cc(C(C)(C)C)c1)C(=O)CN(Cc1ccncc1F)S(=O)(=O)c1c(F)c(F)c(F)c(F)c1F [Compound 1078, 4-(N-(3-(tert-butyl)-5-cyclopropylbenzyl)-2-(N-((3-fluoropyridin-4-yl)methyl)-(2,3,4,5,6-pentafluoro-phenyl)sulfonamido)acetamido)-3-methoxybenzoic acid] | 0.001 to 10 µM | 316 to 1000 nM
247 to 554 min | COc1cc(C(=O)O)ccc1N(Cc1cc(C2CC2)cc(C(C)(C)C)c1)C(=O)CN(Cc1c(F)cc(F)cc1F)S(=O)(=O)c1c(F)c(F)c(F)c(F)c1F [Compound 1081] | 0.001 to 10 µM | 0.01 to 316 nM
247 to 554 min | COc1cc(C(=O)O)ccc1N(Cc1cc(C2CC2)cc(C(C)(C)C)c1)C(=O)CN(Cc1ccccc1C(F)(F)F)S(=O)(=O)c1c(F)c(F)c(F)c(F)c1F [Compound 1087, 4-(N-(3-(tert-butyl)-5-cyclopropylbenzyl)-2-(N-(2-(trifluoromethyl)benzyl)-(2,3,4,5,6-pentafluoro-phenyl)sulfonamido)acetamido)-3-methoxybenzoic acid] | 20 to 30 µM | 0.01 to 316 nM
247 to 554 min | CC(C)(C)c1cc(CN(C(=O)CN(Cc2ccccc2F)S(=O)(=O)c2c(F)c(F)c(F)c(F)c2F)c2ccc(C(=O)O)cc2C2CC2)cc(C2CC2)c1 [Compound 1091, 4-(N-(3-(tert-butyl)-5-cyclopropylbenzyl)-2-(N-(2-fluorobenzyl)-(2,3,4,5,6-pentafluoro-phenyl)sulfonamido)acetamido)-3-cyclopropylbenzoic acid] | 0.001 to 10 µM | 0.01 to 316 nM
247 to 554 min | CC(C)(C)c1cc(CN(C(=O)CN(Cc2ccccc2F)S(=O)(=O)c2c(F)c(F)c(F)c(F)c2F)c2ccc(C(=O)O)cc2C(F)(F)F)cc(C2CC2)c1 [Compound 1092, 4-(N-(3-(tert-butyl)-5-cyclopropylbenzyl)-2-(N-(2-fluorobenzyl)-(2,3,4,5,6-pentafluoro-phenyl)sulfonamido)acetamido)-3-(trifluoromethyl)benzoic acid] | 10 to 20 µM | 0.01 to 316 nM
554 to 100000 min | CC(C)(C)c1cc(CN(C(=O)CN(Cc2ccccc2F)S(=O)(=O)c2c(F)c(F)c(F)c(F)c2F)c2ccc(C(=O)O)cc2OC2CCCC2)cc(C2CC2)c1 [Compound 1094, 4-(N-(3-(tert-butyl)-5-cyclopropylbenzyl)-2-(N-(2-fluorobenzyl)-(2,3,4,5,6-pentafluoro-phenyl)sulfonamido)acetamido)-3-(cyclopentyloxy)benzoic acid] | 20 to 30 µM | 0.01 to 316 nM
142 to 247 min | COc1cc(C(=O)O)ccc1N(Cc1cc(C2CC2)cc(C(C)(C)C)c1)C(=O)CN(Cc1ncccc1C(F)(F)F)S(=O)(=O)c1c(F)c(F)c(F)c(F)c1F [Compound 1098, 4-(N-(3-(tert-butyl)-5-cyclopropylbenzyl)-2-(N-((3-(trifluoromethyl)pyridin-2-yl)methyl)-(2,3,4,5,6-pentafluoro-phenyl)sulfonamido)acetamido)-3-methoxybenzoic acid] | 20 to 30 µM | 316 to 1000 nM
554 to 100000 min | CC(C)(C)c1cc(CN(C(=O)CN(Cc2c(F)c(F)c(F)c(F)c2F)S(=O)(=O)c2c(F)c(F)c(F)c(F)c2F)c2ccc(C(=O)O)cc2OC2CC2)cc(C2CC2)c1 [Compound 1108, 4-(N-(3-(tert-butyl)-5-cyclopropylbenzyl)-2-(N-((perfluorophenyl)methyl)-(2,3,4,5,6-pentafluorophenyl)sulfonamido)acetamido)-3-cyclopropoxybenzoic acid] | 0.001 to 10 µM | 0.01 to 316 nM
554 to 100000 min | CC(C)(C)c1cc(CN(C(=O)CN(Cc2ccccc2C(F)(F)F)S(=O)(=O)c2c(F)c(F)c(F)c(F)c2F)c2ccc(C(=O)O)cc2OC2CC2)cc(C2CC2)c1 [Compound 1111, 4-(N-(3-(tert-butyl)-5-cyclopropylbenzyl)-2-(N-(2-(trifluoromethyl)benzyl)-(2,3,4,5,6-pentafluoro-phenyl)sulfonamido)acetamido)-3-cyclopropoxybenzoic acid] | 30 to 100 µM | 0.01 to 316 nM
142 to 247 min | COc1cc(C(=O)O)ccc1N(Cc1cc(C2CC2)cc(C(C)(C)C)c1)C(=O)CN(Cc1cnccc1C(F)(F)F)S(=O)(=O)c1c(F)c(F)c(F)c(F)c1F [Compound 1116, 4-(N-(3-(tert-butyl)-5-cyclopropylbenzyl)-2-(N-((4-(trifluoromethyl)pyridin-3-yl)methyl)-(2,3,4,5,6-pentafluoro-phenyl)sulfonamido)acetamido)-3-methoxybenzoic acid] | 10 to 20 µM | 0.01 to 316 nM
0.1 to 142 min | O=C(O)c1ccc(N(Cc2cc(C3CC3)cc(C3CC3)c2)C(=O)CN(Cc2ccc(F)cc2Cl)S(=O)(=O)c2c(F)c(F)c(F)c(F)c2F)c(OCC2COC2)c1 [Compound 1257, 4-(2-(N-(2-chloro-4-fluorobenzyl)-(2,3,4,5,6-pentafluorophenyl)sulfon-amido)-N-(3,5-dicyclopropylbenzyl)acetamido)-3-(oxetan-3-ylmethoxy)benzoic acid] | 10 to 20 µM | –

Structure (SMILES) | half-life at 25 μM (glutathione (GSH)) | IC50 [1] | IC50 (MV4-11 cells)
CC(C)COc1cc(C(=O)O)ccc1N(Cc1cc(C2CC2)cc(C2CC2)c1)C(=O)CN(Cc1ccc(F)cc1Cl)S(=O)(=O)c1c(F)c(F)c(F)c(F)c1F [Compound 1255, 4-(2-(N-(2-chloro-4-fluorobenzyl)-(2,3,4,5,6-pentafluorophenyl)sulfon-amido)-N-(3,5-dicyclopropylbenzyl)acetamido)-3-isobutoxybenzoic acid] | 554 to 100000 min | 10 to 20 µM | –
